Patent US10081616B2, “Soluble epoxide hydrolase inhibitors and uses thereof” (X-Chem, Inc., priority 2014, dated 2018)

Biological target: T1, sEH (Homo sapiens, UniProt P34913)
T1 construct: purchased Cayman Chemical 10011669
T1 sequence (P34913 1-555): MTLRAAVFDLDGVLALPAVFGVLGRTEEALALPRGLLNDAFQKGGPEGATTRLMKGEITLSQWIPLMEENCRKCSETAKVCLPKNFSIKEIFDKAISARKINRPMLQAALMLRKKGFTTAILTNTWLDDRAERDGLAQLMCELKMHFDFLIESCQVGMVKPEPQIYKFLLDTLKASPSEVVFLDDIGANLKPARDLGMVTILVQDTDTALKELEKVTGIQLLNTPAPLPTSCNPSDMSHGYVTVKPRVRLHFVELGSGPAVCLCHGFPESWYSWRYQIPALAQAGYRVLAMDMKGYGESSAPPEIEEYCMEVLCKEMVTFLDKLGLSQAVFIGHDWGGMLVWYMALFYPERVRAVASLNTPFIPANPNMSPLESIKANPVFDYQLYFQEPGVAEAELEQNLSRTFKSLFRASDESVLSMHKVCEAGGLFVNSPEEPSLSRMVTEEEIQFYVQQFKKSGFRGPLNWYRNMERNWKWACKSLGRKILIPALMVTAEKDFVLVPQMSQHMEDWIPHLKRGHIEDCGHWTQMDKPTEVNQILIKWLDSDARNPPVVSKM
Assay: sEH inhibition assay (Epoxy Fluor 7 substrate, fluorescence)
Format: biochemical
Conditions: enzyme 3 nM, 15 min pre-incubation at room temperature, read at 30° C. for 20 minutes, read-out: IC50 against sEH
Procedure: The sEH inhibition assay was conducted in costar 384 well black NBS plates (Corning). The assay buffer used was 25 mM Tris pH 7.0 and 0.1 mg/ml BSA. The enzyme was purchased from Cayman Chemical (10011669) at a stock concentration of 15.625 μM. The Epoxy Fluor 7 substrate also from Cayman Chemical (10008610) was dissolved in DMSO at a concentration of 25.68 mM. This was further diluted ten-fold in DMSO to a concentration of 2.568 mM. Competition assays were performed with 5 μL Epoxy Fluor 7 diluted from DMSO stock to a final concentration of 5 nM, 5 μL of competitor (final concentration 10 μM-0.5 nM), and 10 μL enzyme (final concentration of 3 nM) in the assay buffer for a total volume of 20 μL. The compound was pre-incubated with enzyme for 15 min at room temperature prior to addition of substrate. The plate was read kinetically at excitation 330 nm and emission 465 nm wavelengths at 30° C. for 20 minutes on the Tecan M1000. The rate was calculated for the linear portion of the curves (2.5-12.5 minutes) and data fit to a sigmoidal curve.

CN(CCn1cccn1)C(=O)c1ccc(-c2cccc(C(=O)NC3CCCCC3)c2)nc1 [Compound 1, N-(2-(1H-pyrazol-1-yl)ethyl)-6-(3-(cyclohexylcarbamoyl)phenyl)-N-methylnicotinamide]
IC50: 2 nM
